In patent US7118895B2, “Process for producing aglycon by using diglycosidase and flavor-improved food containing the aglycon and converting agent to be used in the process” (Amano Enzyme Inc., priority 2000, dated 2006):

What was measured:
[1] = test system: β-Glucosidase derived from A. niger; assay: Reactivity toward various isoflavone glycosides (HPLC); type: biochemical, Aspergillus niger; set-up: glucoside / aglycon: unit not given here; details: 55 °C, pH 4.0
Outline: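 Aglycone liberation was measured by reversed-phase HPLC (260 nm, calibration-curve quantitation) after ethanol extraction at 0, 1, 3 and 6 h. Reactions ran at 55° C, pH 4.0 (20 mM acetate), with each glycoside (from 2 mM methanol stock) and 0.75 AU/mL enzyme solution.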

Crude diglycosidase = assay: Examination of substrate concentration in the conversion into isoflavone aglycons by diglycosidase using soybean materials; type: biochemical, Penicillium multicolor IAM7153;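 further: percent of the isoflavone family total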
Outline: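 Reaction at 55° C, shaken, pH 4.0 (20 mM acetate), using crude diglycosidase from a 1.88 AU/mL enzyme solution on soy flour, soymilk, defatted soybean or soy protein concentrate at 2, 5, 10, 20 or 30% (w/v). Isoflavone aglycons quantified by HPLC of ethanol extracts at 0, 1, 3, 6 h.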

- aglycon ([1]; Reaction time 0 h): 0
- glucoside ([1]; Reaction time 0 h): 100
- aglycon ([1]; Reaction time 1 h): 1.2
- glucoside ([1]; Reaction time 1 h): 98.8
- aglycon ([1]; Reaction time 3 h): 4.4
- glucoside ([1]; Reaction time 3 h): 95.6
- aglycon ([1]; Reaction time 6 h): 9.1
- glucoside ([1]; Reaction time 6 h): 90.9
- Decomposition efficiency: ratio of each glycoside/aglycon within its isoflavone family (Crude diglycosidase; concentrated soybean protein, substrate concentration 2%, heat treatment of enzyme no, reaction time 0 h): 0.4%
- Decomposition efficiency: ratio of each glycoside/aglycon within its isoflavone family (Crude diglycosidase; concentrated soybean protein, substrate concentration 2%, heat treatment of enzyme no, reaction time 1 h): 0.4%
- Decomposition efficiency: ratio of each glycoside/aglycon within its isoflavone family (Crude diglycosidase; concentrated soybean protein, substrate concentration 2%, heat treatment of enzyme no, reaction time 3 h): 0.2%
- Decomposition efficiency: ratio of each glycoside/aglycon within its isoflavone family (Crude diglycosidase; concentrated soybean protein, substrate concentration 2%, heat treatment of enzyme no, reaction time 6 h): not detected
- Decomposition efficiency: ratio of each glycoside/aglycon within its isoflavone family (Crude diglycosidase; concentrated soybean protein, substrate concentration 2%, heat treatment of enzyme yes, reaction time 6 h): 0.4%
- Decomposition efficiency: ratio of each glycoside/aglycon within its isoflavone family (Crude diglycosidase; concentrated soybean protein, substrate concentration 5%, heat treatment of enzyme no, reaction time 0 h): 0.4%
- Decomposition efficiency: ratio of each glycoside/aglycon within its isoflavone family (Crude diglycosidase; concentrated soybean protein, substrate concentration 5%, heat treatment of enzyme no, reaction time 1 h): 0.5%
- Decomposition efficiency: ratio of each glycoside/aglycon within its isoflavone family (Crude diglycosidase; concentrated soybean protein, substrate concentration 5%, heat treatment of enzyme no, reaction time 3 h): 0.4%
- Decomposition efficiency: ratio of each glycoside/aglycon within its isoflavone family (Crude diglycosidase; concentrated soybean protein, substrate concentration 5%, heat treatment of enzyme no, reaction time 6 h): 0.2%
- Decomposition efficiency: ratio of each glycoside/aglycon within its isoflavone family (Crude diglycosidase; concentrated soybean protein, substrate concentration 5%, heat treatment of enzyme yes, reaction time 6 h): 0.4%
- Decomposition efficiency: ratio of each glycoside/aglycon within its isoflavone family (Crude diglycosidase; concentrated soybean protein, substrate concentration 10%, heat treatment of enzyme no, reaction time 0 h): 0.3%
- Decomposition efficiency: ratio of each glycoside/aglycon within its isoflavone family (Crude diglycosidase; concentrated soybean protein, substrate concentration 10%, heat treatment of enzyme no, reaction time 1 h): 0.4%
- Decomposition efficiency: ratio of each glycoside/aglycon within its isoflavone family (Crude diglycosidase; concentrated soybean protein, substrate concentration 10%, heat treatment of enzyme no, reaction time 3 h): 0.3%
- Decomposition efficiency: ratio of each glycoside/aglycon within its isoflavone family (Crude diglycosidase; concentrated soybean protein, substrate concentration 10%, heat treatment of enzyme no, reaction time 6 h): 0.3%
- Decomposition efficiency: ratio of each glycoside/aglycon within its isoflavone family (Crude diglycosidase; concentrated soybean protein, substrate concentration 10%, heat treatment of enzyme yes, reaction time 6 h): 0.3%
- Decomposition efficiency: ratio of each glycoside/aglycon within its isoflavone family (Crude diglycosidase; concentrated soybean protein, substrate concentration 20%, heat treatment of enzyme no, reaction time 0 h): 0.2%
- Decomposition efficiency: ratio of each glycoside/aglycon within its isoflavone family (Crude diglycosidase; concentrated soybean protein, substrate concentration 20%, heat treatment of enzyme no, reaction time 1 h): 0.3%
- Decomposition efficiency: ratio of each glycoside/aglycon within its isoflavone family (Crude diglycosidase; concentrated soybean protein, substrate concentration 20%, heat treatment of enzyme no, reaction time 3 h): 0.2%
- Decomposition efficiency: ratio of each glycoside/aglycon within its isoflavone family (Crude diglycosidase; concentrated soybean protein, substrate concentration 20%, heat treatment of enzyme no, reaction time 6 h): 0.3%
- Decomposition efficiency: ratio of each glycoside/aglycon within its isoflavone family (Crude diglycosidase; concentrated soybean protein, substrate concentration 20%, heat treatment of enzyme yes, reaction time 6 h): 0.4%
- Decomposition efficiency: ratio of each glycoside/aglycon within its isoflavone family (Crude diglycosidase; concentrated soybean protein, substrate concentration 30%, heat treatment of enzyme no, reaction time 0 h): 0.4%
- Decomposition efficiency: ratio of each glycoside/aglycon within its isoflavone family (Crude diglycosidase; concentrated soybean protein, substrate concentration 30%, heat treatment of enzyme no, reaction time 1 h): 0.6%
- Decomposition efficiency: ratio of each glycoside/aglycon within its isoflavone family (Crude diglycosidase; concentrated soybean protein, substrate concentration 30%, heat treatment of enzyme no, reaction time 3 h): 0.5%
- Decomposition efficiency: ratio of each glycoside/aglycon within its isoflavone family (Crude diglycosidase; concentrated soybean protein, substrate concentration 30%, heat treatment of enzyme no, reaction time 6 h): 0.3%
- Decomposition efficiency: ratio of each glycoside/aglycon within its isoflavone family (Crude diglycosidase; concentrated soybean protein, substrate concentration 30%, heat treatment of enzyme yes, reaction time 6 h): 0.4%
- Decomposition efficiency: ratio of each glycoside/aglycon within its isoflavone family (Crude diglycosidase; defatted soybean, substrate concentration 2%, heat treatment of enzyme no, reaction time 0 h): not detected
- Decomposition efficiency: ratio of each glycoside/aglycon within its isoflavone family (Crude diglycosidase; defatted soybean, substrate concentration 2%, heat treatment of enzyme no, reaction time 1 h): not detected
- Decomposition efficiency: ratio of each glycoside/aglycon within its isoflavone family (Crude diglycosidase; defatted soybean, substrate concentration 2%, heat treatment of enzyme no, reaction time 3 h): not detected
- Decomposition efficiency: ratio of each glycoside/aglycon within its isoflavone family (Crude diglycosidase; defatted soybean, substrate concentration 2%, heat treatment of enzyme no, reaction time 6 h): not detected
- Decomposition efficiency: ratio of each glycoside/aglycon within its isoflavone family (Crude diglycosidase; defatted soybean, substrate concentration 2%, heat treatment of enzyme yes, reaction time 6 h): not detected
- Decomposition efficiency: ratio of each glycoside/aglycon within its isoflavone family (Crude diglycosidase; defatted soybean, substrate concentration 5%, heat treatment of enzyme no, reaction time 0 h): 58.4%
- Decomposition efficiency: ratio of each glycoside/aglycon within its isoflavone family (Crude diglycosidase; defatted soybean, substrate concentration 5%, heat treatment of enzyme no, reaction time 1 h): 41.6%
- Decomposition efficiency: ratio of each glycoside/aglycon within its isoflavone family (Crude diglycosidase; defatted soybean, substrate concentration 5%, heat treatment of enzyme no, reaction time 3 h): 31.8%
- Decomposition efficiency: ratio of each glycoside/aglycon within its isoflavone family (Crude diglycosidase; defatted soybean, substrate concentration 5%, heat treatment of enzyme no, reaction time 6 h): 19.5%
- Decomposition efficiency: ratio of each glycoside/aglycon within its isoflavone family (Crude diglycosidase; defatted soybean, substrate concentration 5%, heat treatment of enzyme yes, reaction time 6 h): 58.5%
- Decomposition efficiency: ratio of each glycoside/aglycon within its isoflavone family (Crude diglycosidase; defatted soybean, substrate concentration 10%, heat treatment of enzyme no, reaction time 0 h): 53.0%
- Decomposition efficiency: ratio of each glycoside/aglycon within its isoflavone family (Crude diglycosidase; defatted soybean, substrate concentration 10%, heat treatment of enzyme no, reaction time 1 h): 54.7%
- Decomposition efficiency: ratio of each glycoside/aglycon within its isoflavone family (Crude diglycosidase; defatted soybean, substrate concentration 10%, heat treatment of enzyme no, reaction time 3 h): 36.6%
- Decomposition efficiency: ratio of each glycoside/aglycon within its isoflavone family (Crude diglycosidase; defatted soybean, substrate concentration 10%, heat treatment of enzyme no, reaction time 6 h): 27.9%
- Decomposition efficiency: ratio of each glycoside/aglycon within its isoflavone family (Crude diglycosidase; defatted soybean, substrate concentration 10%, heat treatment of enzyme yes, reaction time 6 h): 57.6%
- Decomposition efficiency: ratio of each glycoside/aglycon within its isoflavone family (Crude diglycosidase; roasted soy flour, substrate concentration 2%, heat treatment of enzyme no, reaction time 0 h): not detected
- Decomposition efficiency: ratio of each glycoside/aglycon within its isoflavone family (Crude diglycosidase; roasted soy flour, substrate concentration 2%, heat treatment of enzyme no, reaction time 1 h): not detected
- Decomposition efficiency: ratio of each glycoside/aglycon within its isoflavone family (Crude diglycosidase; roasted soy flour, substrate concentration 2%, heat treatment of enzyme no, reaction time 3 h): not detected
- Decomposition efficiency: ratio of each glycoside/aglycon within its isoflavone family (Crude diglycosidase; roasted soy flour, substrate concentration 2%, heat treatment of enzyme no, reaction time 6 h): not detected
- Decomposition efficiency: ratio of each glycoside/aglycon within its isoflavone family (Crude diglycosidase; roasted soy flour, substrate concentration 2%, heat treatment of enzyme yes, reaction time 6 h): not detected
Structure (SMILES): COc1cc2c(=O)c(-c3ccc(O)cc3)coc2cc1O[C@@H]1O[C@H](COC(=O)CC(=O)O)[C@@H](O)[C@H](O)[C@H]1O [malonylglycitin, 6″-O-malonylglycitin]
